In general, MIC refers to the smallest concentration in the dilution series that meets the test's criterion for growth inhibition. A low value points to inhibition by little substance.

The values that follow come from ChEMBL document CHEMBL4342421, “Current scenario of tetrazole hybrids for antibacterial activity” (Eur J Med Chem, 2019).

Assay [1] relates to Pseudomonas aeruginosa. Nature of the assay: Antimicrobial activity against Pseudomonas aeruginosa after 24 hrs by agar disk diffusion method. In kind it is functional. In general terms: In agar diffusion tests the substance spreads into inoculated agar from a disc or well.
Assay [2] has as its system Klebsiella pneumoniae. Nature of the assay: Antimicrobial activity against Klebsiella pneumoniae after 24 hrs by agar disk diffusion method. It counts as functional.
The test system of assay [3] is Escherichia coli. Briefly: Antimicrobial activity against Escherichia coli after 24 hrs by agar disk diffusion method. In kind it is functional.
Assay [4] concerns Proteus mirabilis. Nature of the assay: Antimicrobial activity against Proteus mirabilis after 24 hrs by agar disk diffusion method. In kind it is functional.
For another assay, the system named is Bacillus cereus. Briefly: Antimicrobial activity against Bacillus cereus assessed as zone of inhibition at 0.001 mol/cm3. It counts as functional.
Assay [5] has as its system Escherichia coli. Nature of the assay: Antimicrobial activity against Escherichia coli assessed as zone of inhibition at 0.001 mol/cm3. It counts as functional.
Assay [6] relates to Staphylococcus aureus. Briefly: Antimicrobial activity against Staphylococcus aureus assessed as zone of inhibition at 0.001 mol/cm3. In kind it is functional.
A further assay relates to Pseudomonas. Briefly: Antimicrobial activity against Pseudomonas assessed as zone of inhibition at 10 ug/ml. In kind it is functional. To be noted: read-out: IZ.
Assay [7] is described as follows: Antifungal activity against Rhodotorula ingeniosa assessed as zone of inhibition at 10 ug/ml. In kind it is functional. To be noted: Sampaiozyma ingeniosa; read-out: IZ.
The test system of another assay is Penicillium. Briefly: Antifungal activity against Penicillium assessed as zone of inhibition at 10 ug/ml. To be noted: read-out: IZ. It counts as functional.
Assay [8] deals with Escherichia coli. Nature of the assay: Antimicrobial activity against Escherichia coli assessed as zone of inhibition at 10 ug/ml. In kind it is functional. To be noted: read-out: IZ.
The test system of another assay is Lactococcus lactis. Briefly: Antimicrobial activity against Streptococcus lactis assessed as zone of inhibition at 10 ug/ml. In kind it is functional. To be noted: read-out: IZ.
The test system of the next assay is Streptomyces. Briefly: Antimicrobial activity against Streptomyces assessed as zone of inhibition at 10 ug/ml. To be noted: read-out: IZ. It counts as functional.
The subject of assay [9] is Bacillus subtilis. Briefly: Antimicrobial activity against Bacillus subtilis assessed as zone of inhibition at 10 ug/ml. In kind it is functional. To be noted: read-out: IZ.
Assay [10] relates to Candida albicans. Nature of the assay: Antifungal activity against Candida albicans assessed as zone of inhibition at 10 ug/ml. It counts as functional. To be noted: read-out: IZ.
The test system of assay [11] is Aspergillus niger. Nature of the assay: Antifungal activity against Aspergillus niger assessed as zone of inhibition at 10 ug/ml. It counts as functional. To be noted: read-out: IZ.
The test system of assay [12] is Proteus mirabilis. Briefly: Antimicrobial activity against Proteus mirabilis. In kind it is functional.
The test system of another assay is Proteus vulgaris. Nature of the assay: Antimicrobial activity against Proteus vulgaris. It counts as functional.
The test system of assay [13] is Bacillus subtilis. Nature of the assay: Antimicrobial activity against Bacillus subtilis assessed as zone of inhibition at 5 mg/ml after 24 to 48 hrs by well diffusion method. To be noted: read-out: IZ. In kind it is functional.
A further assay concerns Bacillus thuringiensis. Briefly: Antimicrobial activity against Bacillus thuringiensis. It counts as functional.
In assay [14] the test system is Staphylococcus aureus. Briefly: Antimicrobial activity against Staphylococcus aureus assessed as zone of inhibition at 5 mg/ml after 24 to 48 hrs by well diffusion method. In kind it is functional. To be noted: read-out: IZ.
The test system of assay [15] is Bacillus subtilis. Nature of the assay: Antimicrobial activity against Bacillus subtilis. In kind it is functional.
Another assay deals with Prescottella equi. Nature of the assay: Antimicrobial activity against Rhodococcus equi. It counts as functional. To be noted: Rhodococcus (subgen. Prescottella) equi.
Another assay deals with Streptococcus pneumoniae. Nature of the assay: Antimicrobial activity against Streptococcus pneumoniae. It counts as functional.
In assay [16] the test system is Staphylococcus aureus. Nature of the assay: Antimicrobial activity against Staphylococcus aureus ATCC 25923 assessed as zone of inhibition at 100 ug/ml after 24 hrs by disc diffusion method. In kind it is functional. To be noted: ATCC 25923, 24 h, read-out: IZ.
A further assay deals with Salmonella typhimurium. Nature of the assay: Antimicrobial activity against Salmonella typhimurium. It counts as functional, Salmonella enterica subsp. enterica serovar Typhimurium. To be noted: Salmonella enterica.
Assay [17] has as its system Pseudomonas aeruginosa. Briefly: Antimicrobial activity against Pseudomonas aeruginosa ATCC 27853 after 24 hrs by disc diffusion method. In kind it is functional. To be noted: ATCC 27853, 24 h.
The next assay deals with Talaromyces marneffei. Nature of the assay: Antifungal activity against Penicillium marneffei after 3 to 4 days. It counts as functional.
Assay [18] deals with Staphylococcus aureus. Nature of the assay: Antimicrobial activity against Staphylococcus aureus ATCC 25923 after 24 hrs by disc diffusion method. In kind it is functional. To be noted: ATCC 25923, 24 h.
Assay [19] relates to Trichophyton mentagrophytes. Nature of the assay: Antifungal activity against Trichophyton mentagrophytes after 3 to 4 days. It counts as functional.
Assay [20] deals with Klebsiella pneumoniae. Briefly: Antimicrobial activity against Klebsiella pneumoniae after 24 hrs by disc diffusion method. It counts as functional.
The subject of the next assay is Aspergillus fumigatus. Briefly: Antifungal activity against Aspergillus fumigatus NCIM 902 after 3 to 4 days. In kind it is functional.
In a further assay the test system is Aspergillus flavus. Nature of the assay: Antifungal activity against Aspergillus flavus NCIM 524 after 3 to 4 days. In kind it is functional.
The test system of assay [21] is Escherichia coli. Briefly: Antimicrobial activity against Escherichia coli ATCC 25922 after 24 hrs by disc diffusion method. To be noted: ATCC 25922, 24 h. In kind it is functional.
Assay [22] has as its system Candida albicans. Briefly: Antifungal activity against Candida albicans MTCC 277 after 48 hrs by NCCLS protocol based method. It counts as functional. To be noted: MTCC 277, 48 h.
In assay [23] the test system is Pseudomonas aeruginosa. Briefly: Antimicrobial activity against Pseudomonas aeruginosa. It counts as functional.
Assay [24] has as its system Bacillus subtilis. Briefly: Antimicrobial activity against Bacillus subtilis NCIM 2250 after 48 hrs by NCCLS protocol based method. To be noted: NCIM 2250, 48 h. In kind it is functional.
Assay [25] has as its system Escherichia coli. Briefly: Antimicrobial activity against Escherichia coli. It counts as functional.
Assay [26] relates to Pseudomonas aeruginosa. Nature of the assay: Antimicrobial activity against Pseudomonas aeruginosa assessed as zone of inhibition at 5 mg/ml after 24 to 48 hrs by well diffusion method. It counts as functional. To be noted: read-out: IZ.
For assay [27], the system named is Staphylococcus aureus. Nature of the assay: Antimicrobial activity against Staphylococcus aureus. It counts as functional.
For assay [28], the system named is Aspergillus niger. Briefly: Antifungal activity against Aspergillus niger NCIM 545 after 48 hrs by NCCLS protocol based method. It counts as functional. To be noted: NCIM 545, 48 h.
Assay [29] deals with Escherichia coli. Briefly: Antimicrobial activity against Escherichia coli ATCC 25922 after 48 hrs by NCCLS protocol based method. It counts as functional. To be noted: ATCC 25922, 48 h.
Assay [30] deals with Escherichia coli. Nature of the assay: Antimicrobial activity against Escherichia coli assessed as zone of inhibition at 5 mg/ml after 24 to 48 hrs by well diffusion method. In kind it is functional. To be noted: read-out: IZ.

Converted amounts (≈) assume the structure as drawn.

In the case of `CCC(C)n1ncn(-c2ccc(N3CCN(c4ccc(OCC5COC(Cn6cncn6)(c6ccc(Cl)cc6Cl)O5)cc4)CC3)cc2)c1=O` (centres undefined) [ITRACONAZOLE], the MIC in the assay with Pseudomonas aeruginosa [1], in the assay with Klebsiella pneumoniae [2], in the assay on Escherichia coli [3] and with Proteus mirabilis [4] was 6.25 µg/mL (≈ 8.86 µM) throughout.
Turning to `Cc1c(C(=O)c2ccccc2)sc(-n2cnnn2)c1C(=O)O`, the “inhibition zone (IZ)” value in the assay with Bacillus cereus, in the assay on Escherichia coli [5] and in the assay with Staphylococcus aureus [6] was 17 - 24 mm in each case.
With `c1ccc2c(c1)nnn2Cc1nnn[nH]1`, the zone of inhibition at 10 µg/mL (with Pseudomonas; in assay [7]; with Penicillium; with Escherichia coli [8]; in the assay on Lactococcus lactis; in the assay on Streptomyces) was 11 to 16 mm in each case. Also, the zone of inhibition at 10 µg/mL in the assay with Bacillus subtilis [9], in the assay with Candida albicans [10] and in the assay with Aspergillus niger [11] was 11 to 16 mm in each case.
Consider `CC1(C)S[C@@H]2[C@H](NC(=O)Cc3ccccc3)C(=O)N2[C@H]1C(=O)O` [PENICILLIN G], for which the MIC in the assay with Proteus mirabilis [12], in the assay with Proteus vulgaris, with Bacillus thuringiensis, in the assay with Bacillus subtilis [15], with Prescottella equi and in the assay on Streptococcus pneumoniae was 0.063 to 8 µg/mL (≈ 0.188 to 23.9 µM) in each case. Moreover, the MIC in the assay with Salmonella typhimurium is 0.063 to 8 µg/mL (≈ 0.188 to 23.9 µM). For the same compound, the zone of inhibition at 5000 µg/mL in the assay with Bacillus subtilis [13] came out at 26.2 mm; in the assay with Staphylococcus aureus [14], 24.6 mm. In addition, the zone of inhibition at 100 µg/mL with Staphylococcus aureus [16] lay in the range of 10 to 24 mm.
Regarding `CCn1nnnc1SCCCSc1nnnn1-c1ccccc1`, the MIC (in the assay on Pseudomonas aeruginosa [17]; with Talaromyces marneffei; in the assay on Staphylococcus aureus [18]; in [19]; in the assay on Klebsiella pneumoniae [20]; in the assay with Aspergillus fumigatus) was 6.25 to 50 µg/mL (≈ 17.9 to 143 µM) each time. Further, the MIC against Aspergillus flavus and against Escherichia coli [21] was 6.25 to 50 µg/mL (≈ 17.9 to 143 µM) in each case.
For `CC(=O)OC[C@H]1O[C@H](n2nnnc2Cn2nnc3ccccc32)[C@H](OC(C)=O)[C@@H](OC(C)=O)[C@@H]1OC(C)=O`, the zone of inhibition at 10 µg/mL (in the assay on Pseudomonas; in assay [7]; in the assay on Penicillium; in the assay with Escherichia coli [8]; in the assay on Lactococcus lactis; in the assay on Streptomyces) was 15 to 17 mm throughout. In addition, the zone of inhibition at 10 µg/mL in the assay on Bacillus subtilis [9], in the assay on Candida albicans [10] and in the assay on Aspergillus niger [11] was 15 to 17 mm throughout.
For the compound `CN[C@@H]1[C@H](O[C@H]2[C@H](O[C@H]3[C@H](O)[C@@H](O)[C@H](N=C(N)N)[C@@H](O)[C@@H]3N=C(N)N)O[C@@H](C)[C@]2(O)C=O)O[C@@H](CO)[C@H](O)[C@H]1O` [STREPTOMYCIN], the zone of inhibition at 10 µg/mL (with Pseudomonas; in [7]; with Penicillium; in the assay with Escherichia coli [8]; with Lactococcus lactis; with Streptomyces) was 21 to 22 mm each time. Besides, the zone of inhibition at 10 µg/mL with Bacillus subtilis [9], with Candida albicans [10] and in the assay on Aspergillus niger [11] was 21 to 22 mm in each case. Besides, the MIC against Candida albicans [22] was 10 µg/mL (≈ 17.2 µM); with Pseudomonas aeruginosa [23] it was 200 to 400 µg/mL (≈ 344 to 688 µM); in the assay on Bacillus subtilis [15] it was 200 to 400 µg/mL (≈ 344 to 688 µM); against Bacillus subtilis [24], 10 µg/mL (≈ 17.2 µM); in the assay with Escherichia coli [25], 200 to 400 µg/mL (≈ 344 to 688 µM); with Staphylococcus aureus [27], 200 to 400 µg/mL (≈ 344 to 688 µM). The minimum inhibitory concentration (MIC) with Aspergillus niger [28] and against Escherichia coli [29] was 10 µg/mL (≈ 17.2 µM) throughout. For the same compound, the zone of inhibition at 5000 µg/mL with Pseudomonas aeruginosa [26] is 20.6 mm; with Escherichia coli [30], 26.9 mm.
For the compound `OC[C@H]1O[C@H](n2nnnc2Cn2nnc3ccccc32)[C@H](O)[C@@H](O)[C@@H]1O`, the zone of inhibition at 10 µg/mL (in the assay on Pseudomonas; in assay [7]; with Penicillium; in the assay with Escherichia coli [8]; with Lactococcus lactis; with Streptomyces) was 11 to 15 mm in each case. Further, the zone of inhibition at 10 µg/mL in the assay with Bacillus subtilis [9], in the assay on Candida albicans [10] and in the assay on Aspergillus niger [11] was 11 to 15 mm throughout.
Consider `c1ccc(-n2nnnc2SCCCSc2nnnn2C2CC2)cc1`, for which the MIC (against Pseudomonas aeruginosa [17]; in the assay with Talaromyces marneffei; in the assay with Staphylococcus aureus [18]; in [19]; with Klebsiella pneumoniae [20]; against Aspergillus fumigatus) was 6.25 to 50 µg/mL (≈ 17.3 to 139 µM) throughout. Further, the MIC in the assay on Aspergillus flavus and in the assay on Escherichia coli [21] was 6.25 to 50 µg/mL (≈ 17.3 to 139 µM) in each case.
